Earlier results in US20250177296A1, “SLURRY AND SOLUTION COMPOSITIONS” (MIRAKI INNOVATION THINK TANK LLC, priority 2018, published 2025).

Settings: pretreatment with 2% lidocaine

SMILES: CCN(CC)CC(=O)Nc1c(C)cccc1C [lidocaine]
- Effect of pretreatment on pain response associated with hypertonic saline: attenuates pain response
